From publication PMC8591604, “Targeting Oncogenic Src Homology 2 Domain-Containing Phosphatase 2 (SHP2) by Inhibiting Its Protein–Protein Interactions” (Journal of Medicinal Chemistry, 2021)
Where two headings read alike, the source gives them in different places. Each block holds one molecule with its values, some of them ahead of it. Where a SMILES comes first, the peptide text is derived from it. [ ]: non-standard residue; d: D form. The star is where a group is joined. 5FAM = O=C1OC2(c3ccc(O)cc3Oc3cc(O)ccc32)c2ccc(C(=O)*)cc21; pY = N[C@@H](Cc1ccc(OP(=O)(O)O)cc1)C(=O)O

How the values were obtained:
N-SH2 domain of SHP2 [1] = biological target: T1, N-SH2 domain of SHP2 (Homo sapiens, UniProt Q06124); experiment: Fluorescence anisotropy direct binding assay; details: for standard free energy of binding: assuming a 1 M standard state; for Kd: direct titration of labeled peptide
T1 construct: constructs of the N-SH2 (residues 2–111), C-SH2 (residues 109–217), and PTP (residues 212–528) domains; made in house; host or cells: Escherichia coli (DE3) Rosetta2
T1 sequence (Q06124 2-111): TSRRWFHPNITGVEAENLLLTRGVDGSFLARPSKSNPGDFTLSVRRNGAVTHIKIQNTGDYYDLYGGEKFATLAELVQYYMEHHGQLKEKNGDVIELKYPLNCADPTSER

[2] = Peptide stability in DMEM; assay type: in vitro ADME; details: 3 days; data not shown
Protocol: (§1) The peptides were dissolved in DMSO (5 mg/mL). In Eppendorf tubes, 1 mL of HEPES buffer (25 mM, pH 7.6) was temperature equilibrated at 37 °C before the addition of 250 μL of human serum and 20 μL of a peptide solution; the reaction was followed for 24 h. At fixed intervals, 100 μL of the solution was withdrawn and added to 200 μL of absolute ethanol. These samples were kept on ice for 15 min and then centrifuged at 13000 rpm for 5 min; the supernatant solutions were analyzed by HPLC and HPLC-MS with a 20% to 60% B gradient in 20 min to follow the reaction. In parallel, samples containing peptide, buffer, and ethanol only were analyzed. A degradation resistance test was also conducted in DMEM (Dulbecco’s modified Eagle’s medium). The experimental conditions are similar to those described above; the reaction was followed for 72 h. The enzymatic degradation resistance tests were followed by HPLC using a 5% to 50% B gradient over 20 min.

N-SH2 domain of SHP2 [3] = biological target: T1, N-SH2 domain of SHP2; experiment: Fluorescence anisotropy displacement assay; assay type: binding; details: 1.0 nM CF-P9, 40 nM N-SH2; compared with P9
SHP2Δ104 = biological target: T2, SHP2Δ104 (Homo sapiens, UniProt Q06124); experiment: Dephosphorylation of phosphopeptides, malachite green phosphatase assay; assay type: biochemical; details: 100 μM phosphopeptide
T2 construct: the isolated PTP domain preceded by the C-SH2 domain (residues 105–528); made in house; host or cells: Escherichia coli (DE3) Rosetta2
T2 sequence (Q06124 105-528): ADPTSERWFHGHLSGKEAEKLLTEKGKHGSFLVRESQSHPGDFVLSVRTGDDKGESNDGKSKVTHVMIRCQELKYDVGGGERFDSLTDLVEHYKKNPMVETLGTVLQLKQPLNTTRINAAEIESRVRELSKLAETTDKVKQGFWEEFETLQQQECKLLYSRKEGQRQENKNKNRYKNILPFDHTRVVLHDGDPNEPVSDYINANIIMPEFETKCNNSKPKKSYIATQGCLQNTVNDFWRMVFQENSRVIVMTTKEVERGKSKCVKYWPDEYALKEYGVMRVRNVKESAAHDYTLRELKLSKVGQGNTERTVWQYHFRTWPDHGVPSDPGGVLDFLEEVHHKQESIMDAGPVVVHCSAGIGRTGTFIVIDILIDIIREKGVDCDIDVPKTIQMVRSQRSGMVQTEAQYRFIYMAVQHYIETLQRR
Protocol: The ability of SHP2 to dephosphorylate the phosphopeptides was evaluated through a malachite green phosphatase assay (PTP assay kit 1, Millipore). The BTAM peptide and the following monophosphorylated peptides derived from known SHP2 substrates were used for comparison: DKQVE-pY-LDLDL (GAB1Y657), EEENI-pY-SVPHD (p190A/RhoGAPY1105), and VDADE-pY-LIPQQ (EGFRY1016) (Primm). SHP2Δ104 (2.4 pmol) was incubated with each phosphopeptide at 100 μM (total volume of 25 μL) for different times. The reaction was stopped by adding 100 μL of a malachite green solution. After 15 min, the absorbance was read at 655 nm, using a microplate reader, and compared with a phosphate standard curve to determine the release of phosphate. Data obtained in the linear region of the curve were normalized to the reaction time (1 min). Each experiment was performed in duplicate.

[4] = Peptide stability in human serum (HPLC); assay type: in vitro ADME; details: in 3 h, positive control
Protocol: as §1

N-SH2 domain [5] = biological target: N-SH2 domain; parameters: method as in ref 48 (a number printed in a supplementary file, which may have a reference list of its own: not looked up in the article's list); details: Radioactively labeled peptide; cited from earlier work
N-SH2 domain [6] = biological target: N-SH2 domain; parameters: method as in ref 19 (a number printed in a supplementary file, which may have a reference list of its own: not looked up in the article's list); details: Isothermal titration calorimetry; cited from earlier work

Molecule: CC[C@H](C)[C@H](NC(=O)[C@H](Cc1ccc(OP(=O)(O)O)cc1)NC(=O)[C@H](CC(N)=O)NC(=O)[C@H](CC(C)C)NC(=O)CNC(=O)c1ccc2c(c1)C(=O)OC21c2ccc(O)cc2Oc2cc(O)ccc21)C(=O)N[C@@H](CC(=O)O)C(=O)N[C@@H](CC(C)C)C(=O)N[C@@H](CC(=O)O)C(=O)N[C@@H](CC(C)C)C(N)=O [CF-P9, CF-GLN-pY -IDLDL] (5FAM-GLN[pY]IDLDL-NH2)
standard free energy of binding (N-SH2 domain of SHP2 [1]): -9.94 ± 0.024 kcal/mol | Kd (N-SH2 domain of SHP2 [1]): 53 ± 2 nM

affinity, times lower than the phosphorylated peptide (N-SH2 domain of SHP2 [1]; CF-P9Y0 vs CF-P9): approximately 100 times | standard free energy of binding (N-SH2 domain of SHP2 [1]): -7.07 ± 0.048 kcal/mol | Kd (N-SH2 domain of SHP2 [1]): 6600 ± 600 nM
Molecule: CC[C@H](C)[C@H](NC(=O)[C@H](Cc1ccc(O)cc1)NC(=O)[C@H](CC(N)=O)NC(=O)[C@H](CC(C)C)NC(=O)CNC(=O)c1ccc2c(c1)C(=O)OC21c2ccc(O)cc2Oc2cc(O)ccc21)C(=O)N[C@@H](CC(=O)O)C(=O)N[C@@H](CC(C)C)C(=O)N[C@@H](CC(=O)O)C(=O)N[C@@H](CC(C)C)C(N)=O [CF-P9Y0, CF-GLN- Y -IDLDL] (5FAM-GLNYIDLDL-NH2)

Molecule: CC[C@H](C)[C@H](NC(=O)[C@H](Cc1ccc(C(F)(F)P(=O)(O)O)cc1)NC(=O)[C@H](CC(N)=O)NC(=O)[C@H](CC(C)C)NC(=O)CNC(C)=O)C(=O)N[C@@H](CC(=O)O)C(=O)N[C@@H](CC(C)C)C(=O)N[C@@H](CC(=O)O)C(=O)N[C@@H](Cc1c[nH]c2ccccc12)C(N)=O [OP, GLN- F2Pmp-IDLDW]
stability in DMEM [2]: stable

Molecule: CC[C@H](C)[C@H](NC(=O)[C@H](Cc1ccc(OP(=O)(O)O)cc1)NC(=O)[C@H](CC(N)=O)NC(=O)[C@H](CC(C)C)NC(C)=O)C(=O)N[C@@H](CC(=O)O)C(=O)N[C@@H](CC(C)C)C(=O)N[C@@H](CC(=O)O)C(=O)N[C@@H](CC(C)C)C(N)=O [P8, LN-pY -IDLDL] (Ac-LN[pY]IDLDL-NH2)
effect of shortening the sequence on affinity (displacement curves) (N-SH2 domain of SHP2 [3]): No significant loss of affinity | dephosphorylation by SHP2Δ104 (SHP2Δ104): dephosphorylation was indeed observed

Molecule: CC[C@H](C)[C@H](NC(=O)[C@H](Cc1ccc(OP(=O)(O)O)cc1)NC(=O)[C@H](CC(N)=O)NC(=O)[C@H](CC(C)C)NC(C)=O)C(=O)N[C@@H](CC(=O)O)C(=O)N[C@@H](CC(C)C)C(=O)N[C@@H](CC(=O)O)C(=O)N[C@@H](Cc1c[nH]c2ccccc12)C(N)=O [P8W5, LN-pY -IDLDW]
dephosphorylation by SHP2Δ104 (SHP2Δ104): dephosphorylation was indeed observed

degradation in human serum [4]: totally degraded
Molecule: CC[C@H](C)[C@H](NC(=O)[C@H](C)NC(=O)[C@H](CCCCN)NC(=O)CNC(=O)[C@H](Cc1ccc(O)cc1)NC(=O)[C@H](Cc1ccc(O)cc1)NC(=O)[C@H](CCCCN)NC(=O)[C@H](Cc1ccccc1)NC(=O)[C@@H](N)Cc1c[nH]c2ccccc12)C(=O)N[C@@H](Cc1ccc(O)cc1)C(=O)O [XP] (H-WFKYYGKAIY-OH)

Molecule: N-pY -IDLDL [P7]
effect of shortening the sequence on affinity (displacement curves) (N-SH2 domain of SHP2 [3]): drastic perturbation of the complex stability

Molecule: SLN-pY-IDLDLVKD [IRS-1 pY1172]
Kd (N-SH2 domain [5]): 1000 to 10000 nM | Kd (N-SH2 domain [6]): 51 nM
